Laboratory results as given in patent US12137691B2, “Method for treating plant seed” (RIJK ZWAAN ZAADTEELT EN ZAADHANDEL B.V., priority 2018, dated 2024).

Key:
[1] = test system: fungal growth; assay: Reducing fungal growth on plant seedlings and plants (general statement); assay type: in vivo; settings: general statement in the description, no test details
[2] = test system: Pythium irregulare isolate 779-2010; assay: Germination of hot water treated spinach seed and survival of seedlings in soil inoculated with Pythium irregulare; assay type: in vivo; settings: for effect on the health of the growing plants: coating with only vitamin C (175 or 350 μg per seed)
Description: A solution of an iron salt, such as for instance Fe(II)SO4, and vitamin C in water is prepared by stirring of the chemicals until a clear, colorless solution is obtained.
A rotary coater is charged with seeds and the iron salt with vitamin C solution is added to the seeds via a spinning disk.
The seeds are dried after coating at 25° C./35 RH until the moisture in the seed is equal to the moisture of the seed before treatment with the iron salt solution.
The effect of the iron salt solution prepared in Example 1 on both germination and survival against Pythium is investigated on hot water treated spinach seeds of the variety Mandril. A suitable protocol for the hot water treatment is described in Extension Factsheet Ohio State University; Sally A. Miller and Melanie L Lewis Ivey; “Hot Water Treatment of Vegetable Seeds to Eradicate Bacterial Plant Pathogens in Organic Production Systems”.
The hot water treated spinach seeds were coated with an Fe(II)SO4 coating supplemented with vitamin C. Two different concentrations of Fe(II)SO4 and vitamin C in the coating solution were used: 1 μg Fe(II)SO4 per seed and 1.1 molar equivalents (Meq.) vitamin C, and 250 μg Fe(II)SO4 per seed and 1.1 Meq. vitamin C. As a control, hot water treated seeds without coating and untreated seeds were used.
Seeds were sown in trays. Germination of the seeds was assessed in trays without any inoculum. The effect of the coating on the survival of seedlings was assessed in trays inoculated with Pythium irregulare isolate 779-2010.
(§1) Trays without the inoculum were prepared by mixing+/−10 L of sowing soil with 1 L of tap water in white trays. In total, 117 sowing holes were made in the trays with a press. To prevent any interaction between treatments, only 1 treatment per tray was sown. For each treatment, 3 replicates of 117 seeds were sown. The seeds were topped with two cups (diameter 12 cm) of sowing soil containing 5 grams of inoculum media. Trays were placed in a controlled climate cell at 20° C., LID->14/10 and a RH of 60%. The number of germinated seeds was counted at 7 days, and the amount of surviving seedlings was counted 7 and 14 days after sowing and inoculation. Trays were physically separated from trays containing Pythium inoculum, to prevent cross-contamination.
The inoculum was prepared by growing Pythium irregulare on fresh V8 plates for 3 days at 28° C. After incubation, the spores and mycelium were harvested by adding 20 ml of sterile PBS to the plate and scraping it with a sterile spatula. This inoculum was added to the sowing soil.
as §1, with “with” for “without the”, “treatment 3,” for “treatment, 3”, “(mixed thoroughly in a bucket before topping off).” for “media.”, “inoculation.” for “inoculation. Trays were physically separated from trays containing Pythium inoculum, to prevent cross-contamination.”
The experiment of Example 2 was repeated with the following modifications:
the spinach seed used are of the varieties Platypus and Meerkat […]

[3] = test system: Rhizoctonia isolate AU 14/243; assay: In vitro growth inhibition on PDA agar plates with imbedded coated spinach seeds, Rhizoctonia; assay type: cell-based
Description: FIG. 4A is a schematic picture of an with Rhizoctonia-infected agar plate (1) comprising untreated seeds (2) and seeds coated with 500 μg/seed Fe(II)SO4 (3). Plates were inoculated with Rhizoctonia in the center of the plates (4). The growth of Rhizoctonia was measured after 1 day, 2 days, and 4 days post-inoculation (dpi).
(§2) PDA agar plates were prepared in which spinach seeds of the variety Platypus coated with 250 μg Fe(II)SO4 per seed and 1.1 Meq. vitamin C, 500 μg Fe(II)SO4 per seed and 1.1 Meq. vitamin C, or 500 μg Fe(II)SO4 per seed, were imbedded and inoculated with Rhizoctonia isolate AU 14/243 or Fusarium oxysporum isolate MAFF103063.

[4] = test system: damping-off; assay: Cornsalad seed sown in soil from a field known to suffer from damping-off, healthy seedlings; assay type: in vivo; settings: 500 μg Fe(II)SO4 per seed, no vitamin C, 7, 11, 17 and 24 days after sowing
Description: FIG. 7A is a graph showing the effect of hot water treatment of cornsalad seeds, and subsequent treatment with 500 μg/seed of Fe(II)SO4. The effect is expressed in the percentage of seedlings that are still alive and healthy 7, 11, 17 and 24 days after sowing in soil known to suffer from damping-off.
Cornsalad seed was coated with 500 μg/Fe(II)SO4 per seed as described in Example 1, except that no vitamin C was added. The seed was sown in soil from a field known to suffer from damping-off. The percentage of healthy seedlings was determined 7, 11, 17 and 24 days after sowing.

[5] = test system: Fusarium oxysporum isolate MAFF103063; assay: In vitro growth inhibition on PDA agar plates with imbedded coated spinach seeds, Fusarium; assay type: cell-based
Description: FIG. 4B is a schematic picture of an with Fusarium-infected agar plate (1) comprising untreated seeds (2) and seeds coated with 500 μg/seed Fe(II)SO4 (3). The growth of Fusarium was measured after 2 days, 4 days, and 7 days post-inoculation (dpi).
as §2

[6] = test system: damping-off; assay: Beetroot seed sown in a field known to suffer from damping-off, healthy seedlings; assay type: in vivo; settings: beetroot variety Zeppo, 500 μg Fe(II)SO4 per seed, no vitamin C, 14 and 21 days after sowing
Description: FIG. 6 is a graph showing the effect of treatment of seeds of the beetroot variety Zeppo with 500 μg/seed of Fe(II)SO4. The effect is expressed in the number of seedlings that are still alive and healthy 14 and 21 days after sowing.
Seed of the beetroot variety Zeppo was coated with 500 μg/Fe(II)SO4 per seed as described in Example 1, except that no vitamin C was added. The seed was sown in a field known to suffer from damping-off. The number of healthy seedlings was determined 14 days and 21 days after sowing.

[7] = test system: P. irregulare; assay: Cornsalad seed sown in soil inoculated with P. irregulare, healthy seedlings; assay type: in vivo, Pythium irregulare; settings: 500 μg Fe(II)SO4 per seed, no vitamin C, 7, 11, 17 and 24 days after sowing
Description: FIG. 7B is a graph showing the effect of hot water treatment of cornsalad seeds, and subsequent treatment with 500 μg/seed of Fe(II)SO4. The effect is expressed in the percentage of seedlings that are still alive and healthy 7, 11, 17 and 24 days after sowing in soil inoculated with P. irregulare.
The experiment was also performed on the cornsalad seed when sown in soil inoculated with P. irregulare, prepared as described in Example 2. The percentage of healthy seedlings was determined 7, 11, 17 and 24 days after sowing.

[8] = 4 days post inoculation, 250 μg Fe(II)SO4 per seed and 1.1 Meq. vitamin C, or 500 μg Fe(II)SO4 per seed alone
[9] = Platypus seed, 250 μg Fe(II)SO4 per seed and 1.1 Meq. vitamin C, or 500 μg Fe(II)SO4 per seed alone

Structure (SMILES): [Br-].[Br-].[Fe+2] [Iron(II)bromide]
- effects in reducing fungal growth on the plant seedlings and plants [1]: good effects

Structure (SMILES): O=C1O[C@H]([C@@H](O)CO)C(O)=C1O [vitamin C, reference compound]
- effect on the health of the growing plants ([2]; spinach variety Meerkat, hot water treated): not observed
- effect on the health of the growing plants ([2]; spinach variety Platypus, hot water treated): some effect

Structure (SMILES): O=S(=O)([O-])[O-].O=S(=O)([O-])[O-].[Fe+2].[NH4+].[NH4+] [iron(II)ammonium sulfate]
- effects in reducing fungal growth on the plant seedlings and plants [1]: good effects

Structure (SMILES): O=S(=O)([O-])[O-].O=S(=O)([O-])[O-].O=S(=O)([O-])[O-].[Fe+3].[Fe+3] [iron(III)sulfate]
- effects in reducing fungal growth on the plant seedlings and plants [1]: good effects

Structure (SMILES): [Cl][Fe]([Cl])[Cl] [iron(III)chloride]
- effects in reducing fungal growth on the plant seedlings and plants [1]: good effects

Structure (SMILES): [Br-].[Br-].[Br-].[Fe+3] [iron(III)bromide]
- effects in reducing fungal growth on the plant seedlings and plants [1]: good effects

Structure (SMILES): [Cl][Fe][Cl] [iron(II)chloride]
- effects in reducing fungal growth on the plant seedlings and plants [1]: good effects

Structure (SMILES): O=S(=O)([O-])[O-].O=S(=O)([O-])[O-].[Fe+3].[NH4+] [iron(III)ammonium sulfate]
- effects in reducing fungal growth on the plant seedlings and plants [1]: good effects

Structure (SMILES): O=S(=O)([O-])[O-].[Fe+2] [Fe(II)SO4, iron(II)sulfate]
- dose-effect response (seedlings alive and healthy 14 days after sowing) ([2]; spinach varieties Finwhale and Mandril, hot water treated, 50, 100, 150, 200 and 250 μg Fe(II)SO4 per seed): linear dose-effect response
- doses effective to increase the germination and survival of hot-water treated seed ([2]; spinach varieties Finwhale and Mandril, dose per seed, dose to match untreated seeds depends on variety and/or batch): ≥ 50 µg
- effect on the health of the plants ([2]; spinach varieties Platypus and Meerkat, hot water treated, 250 or 500 μg Fe(II)SO4 per seed, with or without 1.1 Meq. vitamin C): positive effect
- growth of the Rhizoctonia isolate over the plate [3, 8]: the isolate covered the whole plate
- inhibition of Rhizoctonia growth (weaker when compared to 500 μg Fe(II)SO4 and vitamin C) [3, 9]: Inhibition was also observed
- zone of inhibition around the coated seeds, Rhizoctonia ([3]; after 4 days post-inoculation, 500 μg/seed Fe(II)SO4, not around untreated seeds): zone of inhibition (5) is still visible
- protection of cornsalad against damping-off (healthy seedlings) [4]: protects cornsalad against damping-off
- growth of the Fusarium isolate over the plate [5, 8]: the isolate covered the whole plate
- inhibition of Fusarium growth (weaker when compared to 500 μg Fe(II)SO4 and vitamin C) [5, 9]: Inhibition was also observed
- zone of inhibition around the coated seeds, Fusarium ([5]; after 7 days post-inoculation, 500 μg/seed Fe(II)SO4, not around untreated seeds): zone of inhibition (5) is still visible
- effects in reducing fungal growth on the plant seedlings and plants [1]: good effects
- protection of beetroot against damping-off (healthy seedlings) [6]: protects beetroot against damping-off
- protection of cornsalad against damping-off (healthy seedlings) [7]: protects cornsalad against damping-off
